Assay results: patent US8450357B2, “Compositions comprising an aryl pyrazole and/or a formamidine, methods and uses thereof” (Merial Limited, priority 2008, dated 2013)
Where two headings read alike, the source gives them in different places.

Key:
[1] = test system: adult brown dog ticks (Rhipicephalus sanguineus); assay: Tick DMSO contact assay, Compound 1 with reduced dosages of amitraz, Example 16; format: in vivo
Protocol: Scintillation vials were treated with commercial and experimental compounds using the same procedure described in Example 12 above. The treated vials were used to determine the contact toxicity of compounds against adult brown dog ticks (Rhipicephalus sanguineus). The ticks were supplied by Ecto Services Inc. Henderson, N.C.
Unfed adult ticks were released into a metal pan and 10 living ticks were aspirated into each vial. […] Two replicates were tested for each treatment and the results were averaged. Ticks were stimulated by gently exhaling in the vials. Within the same time period, the addition of amitraz to an equal dosage of compound 1 increased mean mortality.

[2] = Solubility of amitraz in various solvents; format: physicochemical
Protocol: (§1) Solutions of amitraz in certain solvents at high concentration result in the appearance of crystals over time. […] The solubility of amitraz in butyl acetate is lower then in anisole, MIK and ethyl benzoate. […] Additionally, when amitraz (25%) in butyl acetate formulations were stored at 50° C. in a chamber, they evaporated slightly. […] Again, lowering concentration to 20% and addition of co-solvents with higher solubility of amitraz avoided crystallization of amitraz. Unexpectedly, this addition of co-solvents caused the effects described below in Example 9.

[3] = Crystal formation of amitraz formulations on storage or on the coat; format: physicochemical
Protocol: as §1

[4] = Stability of formulations comprising Compound 1, accelerated @ 50° C., HPLC; format: physicochemical; conditions: solvents or combinations of solvents in Table 1
Protocol: Compound 1 (3-cyano-1-(2-chloro-6-fluoro-4-trifluoromethylphenyl)-4-dichlorofluoromethylsulfinyl-5-methyl-1H-pyrazole) was dissolved in a solvent or a combination of two or more solvents at 10% w/w. The formulations thus prepared were analyzed, using HPLC, for the content of compound 1 as the initial timepoint reading. Then all formulations were placed at 50° C., and the content of compound 1 in each of them was analyzed at the timepoints of two, four, six and, in some cases, 10 weeks. […] Thus formulations of Compound 1 in the solvents/carriers identified below are shown to be sufficiently stable.

[5] = test system: ticks (Rhipicephalus sanguineus); assay: Study B: tick efficacy of Compound 1 spot-on formulations in dogs; format: in vivo
Text: A separate clinical efficacy study in dogs was designed with an untreated control group and 5 test groups treated with compound 1. Each group had six dogs. Test articles were formulated as topical spot-on solutions containing compound 1, 10-20% w/v in a solvent or a combination of solvents as described above. Dogs were infested with approximately 50 ticks (Rhipicephalus sanguineus) on days −1, 7, 14, 21, 28, 35 and 42. Dogs were also infested with approximately 100 fleas (Ctenocephalides felis) on days −1, 8, 15, 22, 29, 36, and 43. Treatment was applied by parting the hair and applying the formulation directly onto the skin on one spot at the midline of the neck, between the base of the skull and the shoulder blades. […] […] It should be noted that Study A and Study B were conducted at different times and locations, and the results of each clinical study may differ from the other based on various environmental factors. Thus, the results of one clinical study should not be compared with those of another due to these factors.

[6] = 14C radiolabeled drug, spot-on administration, beagle dogs; cited from earlier work
[7] = 4 h, read-out: 4 hour % Mortality Rep 1
[8] = 4 h, read-out: 4 hour % Mortality Rep 2
[9] = 4 h, read-out: 4 hour Avg. % Mortality
[10] = 24 h, read-out: 24 hour % Mortality Rep 1
[11] = 24 h, read-out: 24 hour % Mortality Rep 2
[12] = 24 h, read-out: 24 hour Avg. % Mortality
[13] = 48 h, read-out: 48 hour % Mortality Rep 1
[14] = 48 h, read-out: 48 hour % Mortality Rep 2
[15] = 48 h, read-out: 48 hour Avg. % Mortality

SMILES: Cc1ccc(/N=C/N(C)/C=N/c2ccc(C)cc2C)c(C)c1 [Amitraz, amitraz]
- mortality at 3.13 ppm [1, 7]: 0%
- mortality at 6.25 ppm [1, 7]: 0%
- mortality at 12.5 ppm [1, 7]: 0%
- mortality at 3.13 ppm [1, 8]: 0%
- mortality at 6.25 ppm [1, 8]: 0%
- mortality at 12.5 ppm [1, 8]: 0%
- mortality at 3.13 ppm [1, 9]: 0%
- mortality at 6.25 ppm [1, 9]: 0%
- mortality at 12.5 ppm [1, 9]: 0%
- mortality at 3.13 ppm [1, 10]: 0%
- mortality at 6.25 ppm [1, 10]: 0%
- mortality at 12.5 ppm [1, 10]: 0%
- mortality at 3.13 ppm [1, 11]: 0%
- mortality at 6.25 ppm [1, 11]: 0%
- mortality at 12.5 ppm [1, 11]: 0%
- mortality at 3.13 ppm [1, 12]: 0%
- mortality at 6.25 ppm [1, 12]: 0%
- mortality at 12.5 ppm [1, 12]: 0%
- mortality at 3.13 ppm [1, 13]: 0%
- mortality at 6.25 ppm [1, 13]: 0%
- mortality at 12.5 ppm [1, 13]: 0%
- mortality at 3.13 ppm [1, 14]: 0%
- mortality at 6.25 ppm [1, 14]: 0%
- mortality at 12.5 ppm [1, 14]: 0%
- mortality at 3.13 ppm [1, 15]: 0%
- mortality at 6.25 ppm [1, 15]: 0%
- mortality at 12.5 ppm [1, 15]: 0%
- Solubility of amitraz (at room temperature, %) ([2]; in Acetone): 37.87%
- Solubility of amitraz (at room temperature, %) ([2]; in Anisole (methoxybenzene)): 45.54%
- Solubility of amitraz (at room temperature, %) ([2]; in Benzyl acetate): 21.85%
- Solubility of amitraz (at room temperature, %) ([2]; in Benzyl benzoate): 33.30%
- Solubility of amitraz (at room temperature, %) ([2]; in Butyl acetate): 27.10%
- Solubility of amitraz (at room temperature, %) ([2]; in Ethyl benzoate): 39.43%
- Solubility of amitraz (at room temperature, %) ([2]; in Methyl isobutyl ketone): 36.72%
- crystals upon cooling to room temperature ([3]; amitraz (25%) in butyl acetate stored at 50° C. in a chamber): precipitated crystals
- crystals on the coat of animals ([3]; amitraz (25%) in butyl acetate, clinical studies): produced white crystals

SMILES: Cc1c([S+]([O-])C(F)(Cl)Cl)c(C#N)nn1-c1c(F)cc(C(F)(F)F)cc1Cl (centres unmarked) [Compound 1, 3-cyano-1-(2-chloro-6-fluoro-4-trifluoromethylphenyl)-4-dichlorofluoromethylsulfinyl-5-methyl-1H-pyrazole]
- stability of Compound 1 [4]: good stability
- % Efficacy against ticks ([5]; Day 1, Trt. Group 2: 0.1 ml/kg (10 mg/kg) in Triacetin): 94.8%
- % Efficacy against ticks ([5]; Day 1, Trt. Group 3: 0.2 ml/kg (20 mg/kg) in Triacetin): 93.9%
- % Efficacy against ticks ([5]; Day 1, Trt. Group 4: 10 mg/kg in Diisopropyl adipate): 95.6%
- % Efficacy against ticks ([5]; Day 1, Trt. Group 5: 10 mg/kg in Diethylene glycol monoethyl ether (transcutol)): 87.4%
- % Efficacy against ticks ([5]; Day 1, Trt. Group 6: 10 mg/kg in Triacetin/diisopropyl adipate): 94.8%
- % Efficacy against ticks ([5]; Day 2, Trt. Group 2: 0.1 ml/kg (10 mg/kg) in Triacetin): 99.6%
- % Efficacy against ticks ([5]; Day 2, Trt. Group 3: 0.2 ml/kg (20 mg/kg) in Triacetin): 98.9%
- % Efficacy against ticks ([5]; Day 2, Trt. Group 4: 10 mg/kg in Diisopropyl adipate): 98.9%
- % Efficacy against ticks ([5]; Day 2, Trt. Group 5: 10 mg/kg in Diethylene glycol monoethyl ether (transcutol)): 98.5%
- % Efficacy against ticks ([5]; Day 2, Trt. Group 6: 10 mg/kg in Triacetin/diisopropyl adipate): 99.6%
- % Efficacy against ticks ([5]; Day 9, Trt. Group 2: 0.1 ml/kg (10 mg/kg) in Triacetin): 100%
- % Efficacy against ticks ([5]; Day 9, Trt. Group 3: 0.2 ml/kg (20 mg/kg) in Triacetin): 100%
- % Efficacy against ticks ([5]; Day 9, Trt. Group 4: 10 mg/kg in Diisopropyl adipate): 100%
- % Efficacy against ticks ([5]; Day 9, Trt. Group 5: 10 mg/kg in Diethylene glycol monoethyl ether (transcutol)): 100%
- % Efficacy against ticks ([5]; Day 9, Trt. Group 6: 10 mg/kg in Triacetin/diisopropyl adipate): 100%
- % Efficacy against ticks ([5]; Day 16, Trt. Group 2: 0.1 ml/kg (10 mg/kg) in Triacetin): 100%
- % Efficacy against ticks ([5]; Day 16, Trt. Group 3: 0.2 ml/kg (20 mg/kg) in Triacetin): 100%
- % Efficacy against ticks ([5]; Day 16, Trt. Group 4: 10 mg/kg in Diisopropyl adipate): 100%
- % Efficacy against ticks ([5]; Day 16, Trt. Group 5: 10 mg/kg in Diethylene glycol monoethyl ether (transcutol)): 100%
- % Efficacy against ticks ([5]; Day 16, Trt. Group 6: 10 mg/kg in Triacetin/diisopropyl adipate): 100%
- % Efficacy against ticks ([5]; Day 23, Trt. Group 2: 0.1 ml/kg (10 mg/kg) in Triacetin): 100%
- % Efficacy against ticks ([5]; Day 23, Trt. Group 3: 0.2 ml/kg (20 mg/kg) in Triacetin): 100%
- % Efficacy against ticks ([5]; Day 23, Trt. Group 4: 10 mg/kg in Diisopropyl adipate): 99.1%
- % Efficacy against ticks ([5]; Day 23, Trt. Group 5: 10 mg/kg in Diethylene glycol monoethyl ether (transcutol)): 100%
- % Efficacy against ticks ([5]; Day 23, Trt. Group 6: 10 mg/kg in Triacetin/diisopropyl adipate): 100%
- % Efficacy against ticks ([5]; Day 30, Trt. Group 2: 0.1 ml/kg (10 mg/kg) in Triacetin): 98.8%
- % Efficacy against ticks ([5]; Day 30, Trt. Group 3: 0.2 ml/kg (20 mg/kg) in Triacetin): 100%
- % Efficacy against ticks ([5]; Day 30, Trt. Group 4: 10 mg/kg in Diisopropyl adipate): 99.1%
- % Efficacy against ticks ([5]; Day 30, Trt. Group 5: 10 mg/kg in Diethylene glycol monoethyl ether (transcutol)): 98.8%
- % Efficacy against ticks ([5]; Day 30, Trt. Group 6: 10 mg/kg in Triacetin/diisopropyl adipate): 98.8%
- % Efficacy against ticks ([5]; Day 44, Trt. Group 2: 0.1 ml/kg (10 mg/kg) in Triacetin): 94.5%
- % Efficacy against ticks ([5]; Day 44, Trt. Group 3: 0.2 ml/kg (20 mg/kg) in Triacetin): 99.4%
- % Efficacy against ticks ([5]; Day 44, Trt. Group 4: 10 mg/kg in Diisopropyl adipate): 93.4%
- % Efficacy against ticks ([5]; Day 44, Trt. Group 5: 10 mg/kg in Diethylene glycol monoethyl ether (transcutol)): 98.5%
- % Efficacy against ticks ([5]; Day 44, Trt. Group 6: 10 mg/kg in Triacetin/diisopropyl adipate): 96.6%
- % Efficacy against ticks ([5]; Day 51, Trt. Group 2: 0.1 ml/kg (10 mg/kg) in Triacetin): 90.8%
- % Efficacy against ticks ([5]; Day 51, Trt. Group 3: 0.2 ml/kg (20 mg/kg) in Triacetin): 99.3%
- % Efficacy against ticks ([5]; Day 51, Trt. Group 4: 10 mg/kg in Diisopropyl adipate): 87.9%
- % Efficacy against ticks ([5]; Day 51, Trt. Group 5: 10 mg/kg in Diethylene glycol monoethyl ether (transcutol)): 98.9%
- % Efficacy against ticks ([5]; Day 51, Trt. Group 6: 10 mg/kg in Triacetin/diisopropyl adipate): 91.6%
- % Efficacy against ticks ([5]; Day 58, Trt. Group 2: 0.1 ml/kg (10 mg/kg) in Triacetin): 74.6%
- % Efficacy against ticks ([5]; Day 58, Trt. Group 3: 0.2 ml/kg (20 mg/kg) in Triacetin): 97.6%
- % Efficacy against ticks ([5]; Day 58, Trt. Group 4: 10 mg/kg in Diisopropyl adipate): 89.5%
- % Efficacy against ticks ([5]; Day 58, Trt. Group 5: 10 mg/kg in Diethylene glycol monoethyl ether (transcutol)): 94.1%
- % Efficacy against ticks ([5]; Day 58, Trt. Group 6: 10 mg/kg in Triacetin/diisopropyl adipate): 88.1%

SMILES: N#Cc1nn(-c2c(Cl)cc(C(F)(F)F)cc2Cl)c(N)c1[S+]([O-])C(F)(F)F (centres unmarked) [fipronil, 5-amino-3-cyano-1-(2,6-dichloro-4-trifluoromethylphenyl)-4-trifluoromethylsulfinylpyrazole]
- time detected in the whole skin after treatment [6]: up to 56 days
